Test [1] has as its system Cavia porcellus. As to the kind of experiment: Percent inhibition effect of ONO-5046 on the increase of skin capillary permeability induced by HNE in guinea pigs in vivo on administration of 10 mg/Kg dose iv in guinea pig. The format is functional.
For test [2], the system named is Cavia porcellus. As to the kind of experiment: Percent inhibition effect of ONO-5046 on the increase of skin capillary permeability induced by HNE in guinea pigs in vivo on administration of 3 mg/Kg dose iv in guinea pig. The format is functional.

`CC(C)(C)C(=O)Oc1ccc(S(=O)(=O)Nc2ccccc2C(=O)NCC(=O)O)cc1`: in test [1], 10 mg/kg produced 51.8% inhibition in vivo. Besides, testing at 3 mg/kg in test [2] gave an inhibition in vivo of 31.7%.
